Several values for one entry are separate records, joined by “and”; a condition that tells them apart may be missing. Equal values may be shown once. Inconclusive results and toxic doses are left out. Rule as the data show it: active = T/C of 150% or more; inactive = T/C below 125%.
Test system: L1210 leukemia ip in BDF1 mice, survival T/C
Assay: NCI In Vivo Anticancer Drug Screen. Data for tumor model L1210 Leukemia (intraperitoneal) in B6D2F1 (BDF1) mice
Details: endpoint: mean survival time, higher = longer survival
Procedure, shortened: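 Transplanted-tumor mice were given test agent; controls received vehicle only. Survival readings from the two groups were divided (treated over control).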

[1] = dose: 100.0 mg/kg/injection, schedule: Q04DX003 (ip), vehicle: saline
[2] = dose: 200.0 mg/kg/injection, schedule: Q04DX003 (ip), vehicle: saline
[3] = dose: 400.0 mg/kg/injection, schedule: Q04DX003 (ip), vehicle: saline
[4] = dose: 100.0 mg/kg/injection, schedule: Q04DX003 (ip), vehicle: saline with Tween-80
[5] = dose: 200.0 mg/kg/injection, schedule: Q04DX003 (ip), vehicle: saline with Tween-80
[6] = dose: 100.0 mg/kg/injection, schedule: Q04DX003 (ip), vehicle: Klucel (hydroxypropylcellulose) (HPC)
[7] = dose: 100.0 mg/kg/injection, schedule: Q01DX001 (ip), vehicle: saline
[8] = dose: 200.0 mg/kg/injection, schedule: Q01DX001 (ip), vehicle: saline
[9] = dose: 400.0 mg/kg/injection, schedule: Q01DX001 (ip), vehicle: saline
[10] = dose: 100.0 mg/kg/injection, schedule: Q01DX009 (ip), vehicle: Klucel (hydroxypropylcellulose) (HPC)
[11] = dose: 200.0 mg/kg/injection, schedule: Q01DX009 (ip), vehicle: Klucel (hydroxypropylcellulose) (HPC)
[12] = dose: 400.0 mg/kg/injection, schedule: Q01DX009 (ip), vehicle: Klucel (hydroxypropylcellulose) (HPC)
[13] = dose: 50.0 mg/kg/injection, schedule: Q01DX009 (ip), vehicle: Klucel (hydroxypropylcellulose) (HPC)
[14] = dose: 200.0 mg/kg/injection, schedule: Q04DX003 (ip), vehicle: Klucel (hydroxypropylcellulose) (HPC)

Measured: T/C

O=C1CNC(=O)CN1
inactive: dose: 75.0 mg/kg/injection, schedule: Q01DX009 (ip), vehicle: saline 94 % of control | [1] 103 % of control | dose: 150.0 mg/kg/injection, schedule: Q01DX009 (ip), vehicle: saline 92 % of control | [2] 106 % of control | dose: 300.0 mg/kg/injection, schedule: Q01DX009 (ip), vehicle: saline 94 % of control | [3] 100 % of control

CC/C(=C(\CC)c1ccc(OCCOS(=O)(=O)c2ccccc2)cc1)c1ccc(OCCOS(=O)(=O)c2ccccc2)cc1
inactive: dose: 12.5 mg/kg/injection, schedule: Q04DX002 (ip), vehicle: saline 101 % of control | dose: 25.0 mg/kg/injection, schedule: Q04DX002 (ip), vehicle: saline 101 % of control | dose: 50.0 mg/kg/injection, schedule: Q04DX002 (ip), vehicle: saline 101 % of control

CN(N=O)C(=O)NC1C=CCCC1 (stereo not drawn)
inactive: dose: 12.5 mg/kg/injection, schedule: Q01DX001 (ip), vehicle: other 104 % of control | dose: 25.0 mg/kg/injection, schedule: Q01DX001 (ip), vehicle: other 95 % of control | dose: 50.0 mg/kg/injection, schedule: Q01DX001 (ip), vehicle: other 97 % of control | dose: 100.0 mg/kg/injection, schedule: Q01DX001 (ip), vehicle: other 96 % of control | dose: 200.0 mg/kg/injection, schedule: Q01DX001 (ip), vehicle: other 104 % of control

NCc1cc([N+](=O)[O-])ccc1Cl
inactive: dose: 50.0 mg/kg/injection, schedule: Q01DX009 (ip), vehicle: saline 101 % of control | dose: 100.0 mg/kg/injection, schedule: Q01DX009 (ip), vehicle: saline 95 % of control | [4] 92 % of control | dose: 200.0 mg/kg/injection, schedule: Q01DX009 (ip), vehicle: saline 97 % of control | [5] 103 % of control

O=S(=O)(F)c1cccc2nsnc12
inactive: dose: 25.0 mg/kg/injection, schedule: Q04DX003 (ip), vehicle: Klucel (hydroxypropylcellulose) (HPC) 95 % of control | dose: 50.0 mg/kg/injection, schedule: Q04DX003 (ip), vehicle: Klucel (hydroxypropylcellulose) (HPC) 101 % of control | [6] 87 % of control | dose: 100.0 mg/kg/injection, schedule: Q04DX003 (ip), vehicle: carboxymethylcellulose (CMC) 93 % of control | dose: 400.0 mg/kg/injection, schedule: Q04DX003 (ip), vehicle: carboxymethylcellulose (CMC) 104 % of control

COc1cc(N=O)c(C(=O)c2nccc3cc(OC)c(OC)cc23)cc1OC
inactive: [7] 104 % of control | [8] 91 % of control | [9] 94 % of control

Cc1ccc(CN(C)C)c(C(O)c2ccccc2)c1 (stereo not drawn)
inactive: dose: 50.0 mg/kg/injection, schedule: Q01DX001 (ip), vehicle: saline 96 % of control | [7] 96 % of control

COc1ccc(CO/N=C2/CC(NOCc3ccc(OC)cc3)NC(=O)N2)cc1 (stereo not drawn)
inactive: [1] 90 % of control | [2] 90 % of control | [3] 86 % of control

O=C(O)C1CCCCC1C(=O)Nc1cccc2ccccc12 (stereo not drawn)
inactive: [10] 105 % of control | [11] 96 % of control | [12] 93 % of control

CCOc1ccc(C(=O)/C=C\c2ccc(N(CC)CC)cc2)cc1
inactive: [10] 96 % of control | [11] 93 % of control | [12] 91 % of control

O=C(Nc1cccc(Cl)c1)Oc1cccc2c1CCC2
inactive: dose: 100.0 mg/kg/injection, schedule: Q04DX002 (sc), vehicle: olive oil, sesame oil, peanut oil 97 % of control | dose: 200.0 mg/kg/injection, schedule: Q04DX002 (sc), vehicle: olive oil, sesame oil, peanut oil 94 % of control | dose: 400.0 mg/kg/injection, schedule: Q04DX002 (sc), vehicle: olive oil, sesame oil, peanut oil 102 % of control

N#CCC[P+](CCC#N)(CCC#N)CCCCCC[P+](CCC#N)(CCC#N)CCC#N
inactive: [4] 98 % of control | [5] 93 % of control

O=C(COc1ccc(Cl)cc1Cl)Nc1ccc(S(=O)(=O)O)cc1
inactive: dose: 100.0 mg/kg/injection, schedule: Q04DX002 (ip), vehicle: Klucel (hydroxypropylcellulose) (HPC) 92 % of control | dose: 200.0 mg/kg/injection, schedule: Q04DX002 (ip), vehicle: Klucel (hydroxypropylcellulose) (HPC) 111 % of control | dose: 400.0 mg/kg/injection, schedule: Q04DX002 (ip), vehicle: Klucel (hydroxypropylcellulose) (HPC) 103 % of control

Cn1cnc([N+](=O)[O-])c1SCC(=O)O
inactive: [1] 102 % of control | [2] 102 % of control | [3] 101 % of control

O=C(O)C(Cc1cc(I)c(O)c(I)c1)c1ccccc1 (stereo not drawn)
inactive: [13] 98 % of control | [10] 97 % of control | [6] 100 % of control | [11] 101 % of control | [14] 100 % of control

CCC1CN2CCc3cc(OC)c(OC)cc3C2CC1CC1c2cc(OC)c(OC)cc2CCN1C(=O)CNC(=O)OC(C)(C)C (stereo not drawn)
inactive: [7] 97 % of control | [8] 101 % of control | [9] 109 % of control

O=C(Nc1ccccc1)Nc1ccc(C(=O)c2ccccc2)cc1
inactive: dose: 20.0 mg/kg/injection, schedule: Q01DX005 (ip), vehicle: saline with Tween-80 100 % of control | dose: 40.0 mg/kg/injection, schedule: Q01DX005 (ip), vehicle: saline with Tween-80 89 % of control | dose: 80.0 mg/kg/injection, schedule: Q01DX005 (ip), vehicle: saline with Tween-80 97 % of control | dose: 160.0 mg/kg/injection, schedule: Q01DX005 (ip), vehicle: saline with Tween-80 90 % of control | dose: 320.0 mg/kg/injection, schedule: Q01DX005 (ip), vehicle: saline with Tween-80 95 % of control

Cn1nc(CC(=O)O)c(C(N)=O)c1N
inactive: dose: 12.5 mg/kg/injection, schedule: Q01DX009 (ip), vehicle: Klucel (hydroxypropylcellulose) (HPC) 93 % of control | dose: 25.0 mg/kg/injection, schedule: Q01DX009 (ip), vehicle: Klucel (hydroxypropylcellulose) (HPC) 101 % of control | [13] 96 % of control and 102 % of control | [11] 98 % of control

COc1ccccc1C1OCC(C)(C)N1C (stereo not drawn)
inactive: dose: 100.0 mg/kg/injection, schedule: Q01DX009 (ip), vehicle: saline with Tween-80 101 % of control | [6] 97 % of control and 105 % of control | dose: 200.0 mg/kg/injection, schedule: Q01DX009 (ip), vehicle: saline with Tween-80 95 % of control | [14] 95 % of control | dose: 400.0 mg/kg/injection, schedule: Q01DX009 (ip), vehicle: saline with Tween-80 102 % of control | dose: 400.0 mg/kg/injection, schedule: Q04DX003 (ip), vehicle: Klucel (hydroxypropylcellulose) (HPC) 94 % of control and 93 % of control

Oc1ccc(/C=N/NC(=S)NN2CCOCC2)nc1
inactive: dose: 6.25 mg/kg/injection, schedule: Q01DX009 (ip), vehicle: saline with Tween-80 108 % of control | dose: 12.5 mg/kg/injection, schedule: Q01DX009 (ip), vehicle: saline with Tween-80 116 % of control | dose: 22.0 mg/kg/injection, schedule: Q04DX002 (ip), vehicle: saline with Tween-80 108 % of control | dose: 25.0 mg/kg/injection, schedule: Q01DX009 (ip), vehicle: saline with Tween-80 108 % of control and 119 % of control | dose: 33.0 mg/kg/injection, schedule: Q04DX002 (ip), vehicle: saline with Tween-80 101 % of control | dose: 50.0 mg/kg/injection, schedule: Q04DX002 (ip), vehicle: saline with Tween-80 111 % of control
